Patent publication CN104546697A, “一种右旋布洛芬注射液药物组合物及其制备方法” (CHENGDU EASTON PHARMACEUTICAL Co Ltd, priority 2013, dated 2015)

Experiments:
[1] = background art; cited from earlier work
[2] = test system: pain threshold in the mouse hot plate method [小鼠热板法痛阈]; assay: Effect on pain threshold in the mouse hot plate method; assay type: in vivo, Kunming mouse, female; settings: IV, dose exceeding 80mg/kg
[3] = test system: carrageenan-induced rise of body temperature in rats [大鼠角叉菜胶诱导的体温升高]; assay: Effect on carrageenan-induced rise of body temperature in rats; assay type: in vivo, SD rat; settings: rat, IV

SMILES	pharmacological activity relative to levorotatory ibuprofen [1]	pharmacological activity relative to racemate [1]	analgesic effect above the best dose range [2]	dose range with the best, dose-dependent effect ([3]; carrageenan-induced rise of body temperature)	temperature-lowering effect above the best dose range ([3]; dose exceeding 40mg/kg)	pharmacological activity [1]
CC(C)Cc1ccc([C@H](C)C(=O)O)cc1 [右旋布洛芬]	160 fold	1.6 fold	镇痛效果反而减弱	7.5~30 mg/kg	降温效果反而减弱	–
CC(C)Cc1ccc([C@@H](C)C(=O)O)cc1 [左旋布洛芬]	–	–	–	–	–	非活性成分
